Like-named read-outs stand apart in the source and are kept apart here. Values belong to the molecule of their own block, whether it stands above or below them.
Experiments:
[1] = test system: microsomal metabolism of nebivolol; assay: BBR-nebivolol interaction in pooled HLM; assay type: in vitro ADME, human; conditions: nebivolol 1 µM; pooled HLM 1 mg/mL; BBR 0, 1, 3, 10 µM; 60 min
Experimental: The HDI between BBR and nebivolol was assessed using pooled HLM, where nebivolol (1 μM) was incubated with HLM (1 mg/mL) and NADPH-generating system (see Section 2.6) in phosphate buffer (0.1 M; pH 7.4) with BBR at various concentrations (0, 1, 3, and 10 μM). The mixture (total volume of 200 µL) was incubated at 37 °C for 60 min in a shaking water bath (100 rpm), following a 5 min of pre-incubation at 37 °C. […] The mass transitions of nebivolol and CBZ were m/z 406 to 151 and m/z 237 to 194, respectively.

[2] = target: T1, CYP2D6 (Homo sapiens, UniProt P10635); conditions: microsomes
Experimental: (§1) BBR (0–16 μM) was incubated with pooled HLM (0.2 mg/mL), NADPH (1 mM), and dextromethorphan (5 µM) in phosphate buffer (0.1 M; pH 7.4) for various incubation time periods (0–30 min). The apparent inactivation rate constants (kobs) at various BBR concentrations were estimated by fitting first-order kinetics to the relative enzyme activity vs. incubation time profiles. The rate of enzyme inactivation (kinact) and the inhibition constant (KI) were determined by fitting the following Equation (1) to the kobs values at various inhibitor concentrations Equation (1) [31]:(1) 1/kobs=KI/kinact×1/I+1/kinact

[3] = target: T1, CYP2D6; conditions: microsomes; remark: listed apart in the source
[4] = target: T1, CYP2D6; design: method as in PMID 25145883; conditions: HLM; previous study; cited from earlier work
[5] = design: method as in PMID 19589224, PMID 12562448, PMID 27283523; conditions: clinical PK studies; single administration of BBR; highly variable; cited from earlier work
[6] = target: T1, CYP2D6; assay: in vitro; conditions: pH 7.4
Experimental: (§2) Pre-incubation was performed in pooled HLM (0.2 mg/mL) added with BBR, THB, TFD, or DMB, or rhCYP2D6 (10 pmol/mL) added with BBR, with or without NADPH (1 mM) in phosphate buffer (0.1 M; pH 7.4) for 30 min. Then, the CYP2D6 substrate (5 µM of dextromethorphan) and NADPH (1 mM) were added to the mixture and incubated for another 10 min. All incubations were carried out at 37 °C in a shaking water bath (100 rpm) using eight-well tube strips placed in an 8 × 12 rack, where the final volume of each reaction mixture was 200 µL. […] The enzyme reactions were quenched by adding an aliquot (200 µL) of ice-cold ACN containing CBZ (100 nM) as an IS. The samples were centrifuged, and the concentration of CYP2D6 metabolite (i.e., dextrorphan, produced by O-demethylation of dextromethorphan) in supernatants were analyzed using the LC-MS/MS method described in Section 2.2.

[7] = target: T1, CYP2D6; assay: Kinetic parameters for MDI of CYP2D6 in pooled HLM
Experimental: as §1

[8] = target: recombinant human CYP2D6 (rhCYP2D6) (Homo sapiens, UniProt P10635); assay: Metabolism-dependent CYP2D6 inhibition assay (IC50 shift) using rhCYP2D6
Experimental: as §2

[9] = assay type: in vitro ADME, human; conditions: precursor 1 µM in pooled HLM with NADPH-generating system, mean ± SD
Experimental: Table 3. Putative M1 metabolite produced in pooled HLM incubated with thalifendine or
Precursor molecules Incubation time (min)a M1 signal at m/z 310 (103 × cps)b
Demethyleneberberine 0 107 ± 3
a Thalifendine or demethyleneberberine (1 μM) was incubated with pooled HLM in the presence of
NADPH-generating system; b Each value represents the mean ± SD for three separate samples. […]

T1 sequence (P10635 whole entry): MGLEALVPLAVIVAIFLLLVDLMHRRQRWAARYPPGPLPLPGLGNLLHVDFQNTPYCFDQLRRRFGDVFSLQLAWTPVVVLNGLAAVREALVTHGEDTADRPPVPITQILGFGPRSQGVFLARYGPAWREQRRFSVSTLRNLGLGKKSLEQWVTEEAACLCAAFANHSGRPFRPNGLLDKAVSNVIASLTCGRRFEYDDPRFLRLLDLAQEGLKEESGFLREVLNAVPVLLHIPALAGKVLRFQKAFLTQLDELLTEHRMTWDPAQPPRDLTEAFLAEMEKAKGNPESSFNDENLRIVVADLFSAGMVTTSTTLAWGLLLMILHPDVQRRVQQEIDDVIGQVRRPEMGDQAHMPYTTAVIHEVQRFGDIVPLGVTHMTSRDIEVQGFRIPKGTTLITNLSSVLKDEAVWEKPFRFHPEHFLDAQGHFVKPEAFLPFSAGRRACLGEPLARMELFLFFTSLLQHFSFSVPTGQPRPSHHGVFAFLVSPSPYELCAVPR
recombinant human CYP2D6 (rhCYP2D6), sequence (P10635 whole entry): as above

SMILES: COc1ccc2cc3[n+](cc2c1OC)CCc1cc2c(cc1-3)OCO2 [BBR, berberine]
Effect on microsomal clearance of nebivolol [1]: significantly inhibited
kinact/KI against CYP2D6 [2]: 97.2 M⁻¹ s⁻¹
Mode of CYP2D6 inhibition [3]: quasi-irreversible
IC50 [4]: ~23.5 µM
Maximum plasma concentration [5]: less than 1 nM to more than 1 µM
IC50 shift at 10 min [6]: ~7.5
Ki [7]: 4.29 µM
kinact ([7]; human, pooled human liver microsomes, pH 7.4, probe dextromethorphan (5 µM)): 0.000417 s⁻¹
IC50 ([8]; IC50 against rhCYP2D6, pre-incubation with NADPH, 30 min pre-incubation with NADPH): 1.73 µM
IC50 ([8]; IC50 against rhCYP2D6, pre-incubation without NADPH, 30 min pre-incubation in the absence of NADPH): 5.31 µM

M1 signal at m/z 310 ([9]; incubation time 0 min): 107 ± 3 103 × cps
M1 signal at m/z 310 ([9]; incubation time 30 min): 432 ± 27 103 × cps
SMILES: COc1ccc2cc3[n+](cc2c1OC)CCc1cc(O)c(O)cc1-3 [DMB, demethyleneberberine]

From article PMC7600264, “Quasi-Irreversible Inhibition of CYP2D6 by Berberine” (Pharmaceutics, 2020)
